Here are results for 13 molecules from PubChem BioAssay (NCI).

Test systems include MALME-3M melanoma; IGROV1 ovarian; HOP-18 NSCLC; OVCAR-8 ovarian; SF-268 CNS; DLD-1 colon; SF-295 CNS; HCT-15 colon; NCI-H522 lung; CAKI-1 renal; SF-539 CNS; M14 melanoma; TK-10 renal.
What all share (assay): NCI tumour cell line growth inhibition, 48 h

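Briefly, cells in 96-well plates were exposed to five compound concentrations for 48 h, and endpoints were estimated by linear interpolation. Here, GI50 denotes the concentration required for 50% inhibition of growth. At the TGI there is no net growth.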

`c1ccc2c(c1)SCCc1cn[nH]c1-2`: the TGI with MALME-3M melanoma, in the assay with IGROV1 ovarian, with HOP-18 NSCLC, in the assay with OVCAR-8 ovarian, in the assay with SF-268 CNS and in the assay on DLD-1 colon was above 100 µM in each case. In addition, the TGI with SF-295 CNS, in the assay with HCT-15 colon, with NCI-H522 lung, with CAKI-1 renal and in the assay with SF-539 CNS was above 100 µM throughout.

Take `O=S(O)CCCSSSCCCS(=O)O`: the TGI in the assay with MALME-3M melanoma, in the assay with SF-268 CNS, with DLD-1 colon, in the assay on M14 melanoma, in the assay with NCI-H522 lung and in the assay with TK-10 renal was above 100 µM in each case. The TGI in the assay on SF-539 CNS was above 100 µM.

Regarding `CSCC(CO)NC(=O)/C=C/c1c(C)[nH]c(=O)[nH]c1=O` (centres undefined), the TGI in the assay on MALME-3M melanoma is above 875 µM; with IGROV1 ovarian it was above 875 µM; in the assay on HOP-18 NSCLC it was above 875 µM; with OVCAR-8 ovarian, above 348 µM; with SF-268 CNS it was above 875 µM; in the assay on DLD-1 colon, above 875 µM. Besides, the TGI in the assay on SF-295 CNS was above 875 µM; in the assay on HCT-15 colon, above 875 µM; in the assay on NCI-H522 lung, 499 µM; with CAKI-1 renal, above 87.5 µM; in the assay with SF-539 CNS, above 875 µM.

In the case of `Nc1ccc(Cn2ccc3c4c(N)nc(N)nc4ccc32)cc1`, the TGI in the assay on MALME-3M melanoma was determined as 7.04 µM; in the assay with IGROV1 ovarian, 18.7 µM; with HOP-18 NSCLC it was 21.9 µM; in the assay with OVCAR-8 ovarian it was 22 µM; in the assay on SF-268 CNS, 25.6 µM; in the assay with DLD-1 colon, 17 µM. The TGI with SF-295 CNS is 2.15 µM; in the assay with M14 melanoma, 6.45 µM; in the assay on HCT-15 colon, 17.6 µM; in the assay with NCI-H522 lung, 3.72 µM; with CAKI-1 renal, 18 µM; in the assay on TK-10 renal, 13.6 µM. This molecule also had a TGI in the assay with SF-539 CNS of 4.15 µM.

Turning to `c1ccc2c(c1)SP1Sc3ccccc3P21` (centres undefined), the TGI in the assay on MALME-3M melanoma was above 100 µM; in the assay on IGROV1 ovarian, above 100 µM; with HOP-18 NSCLC it was 73.1 µM; in the assay with OVCAR-8 ovarian, above 100 µM; in the assay with SF-268 CNS, above 100 µM; with DLD-1 colon it was above 100 µM. The TGI with SF-295 CNS, with HCT-15 colon, in the assay on NCI-H522 lung and in the assay with SF-539 CNS was above 100 µM throughout.

In the case of `S=c1[nH]n2c(COc3ccc(Cl)cc3)nnc2s1`, the TGI in the assay with MALME-3M melanoma, in the assay on IGROV1 ovarian, with OVCAR-8 ovarian, with SF-268 CNS, in the assay on SF-295 CNS and in the assay with M14 melanoma was above 100 µM throughout. Also, the TGI in the assay on HCT-15 colon, with NCI-H522 lung, with CAKI-1 renal, in the assay with TK-10 renal and with SF-539 CNS was above 100 µM each time.

As to `CC1(C)N=C(c2ccccc2)SC12S[C@@H]1CCCC[C@H]1S2`, the TGI with MALME-3M melanoma, in the assay with IGROV1 ovarian, in the assay with OVCAR-8 ovarian, with SF-268 CNS, in the assay on SF-295 CNS and in the assay on M14 melanoma was above 100 µM throughout. Moreover, the TGI with HCT-15 colon, in the assay on NCI-H522 lung, with CAKI-1 renal, in the assay on TK-10 renal and in the assay with SF-539 CNS was above 100 µM throughout.

As for `CN(C)c1cccc(OC(=O)NCCCl)c1`, the GI50 in the assay on MALME-3M melanoma is above 100 µM. In addition, the TGI in the assay on MALME-3M melanoma, in the assay with IGROV1 ovarian, in the assay on HOP-18 NSCLC, in the assay on OVCAR-8 ovarian, in the assay on SF-268 CNS and with DLD-1 colon was above 100 µM in each case. The TGI with SF-295 CNS, with HCT-15 colon, in the assay on NCI-H522 lung, in the assay with CAKI-1 renal and in the assay with SF-539 CNS was above 100 µM each time.

Turning to `COCCNCc1ccc(-c2cc3nccc(Oc4ccc(NC(=O)C5(C(=O)Nc6ccc(F)cc6)CC5)cc4F)c3s2)nc1`, the GI50 in the assay on OVCAR-8 ovarian was 2.11 µM; in the assay with HCT-15 colon it was 1.68 µM; with CAKI-1 renal, 2.08 µM; with TK-10 renal, 2.21 µM. Further, the TGI in the assay on OVCAR-8 ovarian stood at 5.13 µM; in the assay on HCT-15 colon, 4.57 µM; in the assay with CAKI-1 renal, 4.83 µM; in the assay with TK-10 renal it was 4.43 µM.

`Cc1cccc2c1Sc1ccccc1C2NC(=O)CN(C)C` (centres undefined): the TGI in the assay with IGROV1 ovarian, in the assay on OVCAR-8 ovarian, in the assay on SF-268 CNS, with M14 melanoma, in the assay on HCT-15 colon and in the assay on TK-10 renal was above 100 µM throughout. The molecule further yielded a TGI with SF-539 CNS above 100 µM.

Turning to `CO/C=C1\OC(=O)C=C1OC`, the TGI in the assay on MALME-3M melanoma, with IGROV1 ovarian, with HOP-18 NSCLC, with OVCAR-8 ovarian, in the assay with SF-268 CNS and in the assay on DLD-1 colon was above 100 µM throughout. The TGI in the assay with SF-295 CNS, with HCT-15 colon, in the assay on NCI-H522 lung, in the assay on CAKI-1 renal and in the assay with SF-539 CNS was above 100 µM throughout.

For `c1csc(-c2ccc(CNc3c4ccccc4nc4ccccc34)cc2)c1`, the GI50 was 1.31 µM with SF-295 CNS, 1.75 µM in the assay on M14 melanoma, 1.46 µM in the assay on CAKI-1 renal and 1.76 µM with TK-10 renal. Besides, the TGI in the assay with SF-295 CNS came to 2.67 µM; with M14 melanoma, 3.4 µM; in the assay on CAKI-1 renal, 5.61 µM; with TK-10 renal, 3.28 µM.

`CN(c1ccccc1)c1nc(=[N+]2CCCC2)ss1`: the TGI with MALME-3M melanoma, in the assay on IGROV1 ovarian, with HOP-18 NSCLC, in the assay with OVCAR-8 ovarian, with SF-268 CNS and with M14 melanoma was above 100 µM in each case. Moreover, the TGI with HCT-15 colon, with CAKI-1 renal and in the assay with TK-10 renal was above 100 µM in each case.
